The source of these data is patent US5162231A, “Method of using 5,10,15,20-tetrakis(carboxyphenyl)porphine for detecting cancers of the lung” (priority 1990, dated 1992).

One data set concerns malignant sputum cells. Briefly: Porphyrin uptake in sputum cells evaluated with a fluorescent microscope. Format: cell-based, human. The text has this: Five parameters were investigated for this study: (1) the effect of various sputum processing procedures on the uptake of porphyrin in sputum cells, (2) the comparison of TCPP to three other porphyrins that are known for their uptake by tumors, (3) the time required for optimal uptake of the porphyrin in sputum cells, (4) the uptake of porphyrin in test and control sputum samples, and (5) the verification that TCPP was localizing in malignant sputum cells. In each of these investigations, the uptake of porphyrin in sputum cells was evaluated with a fluorescent microscope. Nonmetallated porphyrin fluoresces at approximately 650 nm. Sputum samples were evaluated for (1) the number of cells in the sputum samples which fluoresced, and (2) the intensity of the porphyrin fluorescence.
Sputum samples require processing in order to produce a single cell suspension of lung cells. Sputum samples from test and control patients were collected and processed with alcohol and carbowax, alcohol only, phosphate-buffered saline (PBS), or left unprocessed. All samples were mixed with a blender for 1 minute following the addition of the processing mixture and then placed into petri dishes containing various porphyrins. […] Cells in the unprocessed sputum samples remained attached to the bottom of the petri dish with only a few cells free of the mucous.
Four porphyrins selected for their known affinity for neoplastic cells were tested for their ability to detect malignant sputum cells. Sputum cells obtained from each of the four processing procedures set forth above were treated with one of hematoporphyrin derivative, HPD, 5,10,15,20-tetrakis(4-carboxyphenyl)porphine, TCPP, 5,10,15,20-tetrakis(4-sulfonatophenyl)porphine, TTPS, or uroporphyrin, URO. In all investigations, the porphyrins were dissolved in tissue culture medium at a concentration of 200 μg/ml. Following the addition of porphyrin, each sample was incubated at 37° C. for a specific length of time.
Following the incubation period, each sputum sample was examined for porphyrin uptake with a fluorescent microscope. The background fluorescence from porphyrin uptake by nonmalignant cells was lower in some measurements.
Each sputum sample was incubated at 37° C. with each of the porphyrins for either 6 or 24 hours and then evaluated for porphyrin uptake with a fluorescent microscope. At the 6 hour incubation period, the cells had begun to localize porphyrin; however, when the sputum cells were washed with PBS, the fluorescence diminished considerably. […] By 24 hours, by contrast, the uptale of porphyrin by sputum cells increased considerably. […] When the sputum cells that had been incubated for 24 hours were washed with PBS, the porphyrin remained attached to the cells. Longer incubation times were not investigated.
When porphyrin uptake in the test and control samples were compared (i.e., the number of sputum cells which fluoresced), the porphyrin uptake in the control samples was considerably lower than the uptake in the test samples. In addition, the fluorescence intensity of the few control cells that did floresce was lower than the fluorescence intensity of the test cells.

The test system of data set [1] is normal human lung epithelial cells. The data set is described as follows: TCPP uptake in normal lung epithelial cells. Format: cell-based.
In data set [2] the test system is human small cell (oat cell) lung carcinoma. Briefly: TCPP uptake in small cell lung carcinoma cells. It is filed as cell-based.
Data set [3] concerns neoplastic sputum cells (squamous cell lung carcinoma, oat cell lung carcinoma, lung adenocarcinoma, advanced metastatic lymphoma). The data set is described as follows: Fluorescence of sputum samples from lung cancer patients versus noncancerous patients. Format: cell-based, human. The procedure:
Studies were conducted using patients having confirmed squamous cell lung carcinoma, oat cell lung carcinoma, lung adenocarcinoma, and advanced metastatic lymphoma (lung metastasis) using procedures identical to those set forth above.

The test system of the next data set is neoplastic sputum cells. The data set is described as follows: TCPP fluorescence in PAP-stained neoplastic sputum cells. It is filed as cell-based, human. Conditions: after PAP staining. The text has this: To assist in the identification of the neoplastic cells, sputum samples which had the greatest TCPP uptake were stained with PAP stain, a stain routinely used by cytologists to identify neoplastic cells. Cells identified as neoplastic using the PAP stain were marked and re-examined for TCPP uptake with a fluorescent microscope.

The subject of the next data set is squamous carcinoma cells. The data set is described as follows: TCPP uptake in squamous carcinoma cells, flow cytometry. It is filed as cell-based. The conditions noted are these: squamous carcinoma cells grown in culture. (In general: Flow cytometry measures light scatter and fluorescence of single cells or particles in a stream.)
Data set [4] relates to cancers of the lung grown in tissue cultures. Briefly: TCPP localization in lung cancers grown in tissue culture. It is filed as cell-based.
The nature of data set [5]: Biological half-life study. It is filed as in vivo. The conditions noted are these: rats, intravenous; exponential decay. An excerpt: (§1) A sterile dose of ^67 CuTCPP (1.0×10^-6 gm) was intravenously injected into the tail vein of rats.
Data set [6] is described as follows: Serum stability: loss of copper measured by fluorescence under simulated physiological conditions. It is filed as in vitro ADME, human. The text has this:
An important consideration in the development of a radiopharmaceutical is the stability of the complex ^67 Cu TCPP to the loss of the radioisotope ^67 Cu in vivo.

The nature of data set [7]: Biodistribution in rats after intravenous injection. It is filed as in vivo. The conditions noted are these: normal rats (no cancer), 1.0×10^-6 gm.
Excerpt: as §1

Setting [8] is: 200 μg/ml, 37° C., four porphyrins compared.

Consider `O=C(O)c1ccc(-c2c3nc(c(-c4ccc(C(=O)O)cc4)c4ccc([nH]4)c(-c4ccc(C(=O)O)cc4)c4nc(c(-c5ccc(C(=O)O)cc5)c5ccc2[nH]5)C=C4)C=C3)cc1` [TCPP, 5,10,15,20-tetrakis(4-carboxyphenyl)porphine], for which, in the data set on malignant sputum cells (setting [8]), the “contrast (brightness) between fluorescing malignant cells and background fluorescence” value is “greatest contrast (brightness)”; the “number of cells fluorescing” value is reported as “greatest number of cells fluorescing”; the porphyrin uptake entry is “significant porphyrin uptake in the malignant bodies”. Also, the “TCPP uptake by sputum processing procedure” value in the data set on malignant sputum cells (alcohol or alcohol/carbowax processing vs PBS or unprocessed) was “highest TCPP uptake”. Also, in the data set with malignant sputum cells (four porphyrins compared), the “difference between the uptake of porphyrin by test and control sputum cells” value is reported as “most dramatic difference”. In addition, the “TCPP concentration relative to autofluorescence or background” value in [1] (normal human lung epithelial cells) was “only slightly above autofluorescence or background levels”. Moreover, the “TCPP concentration relative to neoplastic cell lines” value in data set [1] (vs neoplastic cell lines examined) was “many times lower concentration”. Further, the “TCPP uptake compared with normal cells” value in data set [2] (vs normal cells) is recorded as “considerably higher than uptake in normal cells”. Moreover, the “TCPP absorption lower than in squamous cell line” value in data set [2] (vs squamous cell line) was 2-3 times lower. Further, the “uptake of porphyrin in neoplastic sputum cells” value in data set [3] (carbowax and ethanol) is given as “greatest uptake of porphyrin in neoplastic sputum cells”. In addition, the “number of fluorescent cells times fluorescence intensity, cancer patients vs noncancerous patients” value in data set [3] (sputum samples) is listed as 3-6 times. In the data set on neoplastic sputum cells, the “TCPP fluorescence in neoplastic cells identified by PAP stain” value is “seen in every neoplastic cell”. Further, in the data set on squamous carcinoma cells, the “detection by flow cytometry” value is given as “can easily be detected using flow cytometry”. Further, the “incubation time for TCPP localization” value in data set [4] (24 hours in TCPP) is “more than adequate to maximize the TCPP localization”. In addition, the “effect of fixing the cells prior to TCPP exposure on TCPP uptake” value in data set [4] (fixed prior to TCPP exposure) was “increased the TCPP uptake”. For the same compound, in data set [4] (paraformaldehyde vs alcohol and carbowax), the “effect of paraformaldehyde fixation on TCPP uptake” value was “slightly increase the TCPP uptake”. In [4] (tissue culture), the “localization in cultured lung cancers” value is recorded as “localizes in cancers of the lung grown in tissue cultures”.
For `O=C([O-])c1ccc(C2=C3C=CC(=N3)C(c3ccc(C(=O)[O-])cc3)=C3C=CC(=N3)C(=c3ccc(=C([O-])[O-])cc3)c3ccc([n-]3)C(c3ccc(C(=O)[O-])cc3)=C3C=CC2=N3)cc1.[67Cu+2].[H+].[H+].[H+].[H+]` [^67 CuTCPP], the biological half-life in [5] is reported as 108 hours. Besides, the “conversion (loss of copper)” value in data set [6] (human serum albumin, EDTA and DTPA, up to 12 days, one percent is the limit of detection) was “less than one”. The “transcomplexation with other metal ions” value in data set [6] (ultraviolet-visible spectroscopy) is recorded as “no detectable transcomplexation with other metal ions”. For the same compound, the “uptake by normal lung tissue” value in data set [7] is on record as “does not appear to take up significant quantities”. The “major organs of localization” value in data set [7] (tail vein) is “liver and kidney”.
Regarding uroporphyrin [reference compound], the porphyrin uptake result in the data set on malignant sputum cells (setting [8]) was “least porphyrin uptake”.
